Reference: patent publication US11179371B2, “Triazole benzamide derivatives as GPR142 agonists” (Boehringer Ingelheim International GmbH, priority 2018, dated 2021)

biological target: T1, human GPR142 receptor (Homo sapiens, UniProt Q7Z601); test: IP1 accumulation HTRF assay for GPR142 agonist activity in HEK293 FLPinTREX cells; format: cell-based; settings: HEK293 FLPinTREX cells stably expressing human GPR142, IP1 generation (IP-One HTRF), 60 minutes at 37° C.
T1 construct: Gene ID: 350383) was cloned; expressed in transfected cells
T1 sequence (Q7Z601 1-462): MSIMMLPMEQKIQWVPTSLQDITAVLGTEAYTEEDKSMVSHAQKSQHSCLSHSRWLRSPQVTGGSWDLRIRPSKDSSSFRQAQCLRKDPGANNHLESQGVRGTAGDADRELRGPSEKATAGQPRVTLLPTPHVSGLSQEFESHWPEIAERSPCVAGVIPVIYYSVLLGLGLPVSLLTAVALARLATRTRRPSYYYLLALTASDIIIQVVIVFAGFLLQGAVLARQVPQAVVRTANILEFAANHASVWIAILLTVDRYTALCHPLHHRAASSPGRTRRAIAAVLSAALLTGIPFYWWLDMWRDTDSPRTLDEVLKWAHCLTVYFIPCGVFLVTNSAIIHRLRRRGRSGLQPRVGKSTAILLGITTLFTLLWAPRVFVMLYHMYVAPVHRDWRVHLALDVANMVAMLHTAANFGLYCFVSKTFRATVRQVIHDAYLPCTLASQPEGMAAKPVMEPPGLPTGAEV
Experimental: This assay allows monitoring activity of compounds acting on Gq-coupled receptors. The principle of the assay is based on the competition between IP1 generated in the cells with d2-labeled IP1 for binding to a monoclonal anti-IP1 […] cryptate that allows for measuring quantitative changes using the Homogeneous Time Resolved Fluorescence. LiCl is added to the cell stimulation buffer, causing IP1 to accumulate upon receptor activation.
The open reading frame encoding the human GPR142 receptor (primary accession number: NM_181790; Gene ID: 350383) was cloned into the pcDNA5/FRT/TO vector for stable, and inducible expression using the Flp-In™ T-REx™ technology in HEK293 FLPinTREX cells. For stable expression, HEK293 FLPinTREX cells were co-transfected with the vector encoding human GPR142 and the pOG44 plasmid that constitutively expresses the Flp recombinase for stable integration of the human GPR142 into the genome of the Flp-In™ T-REx™ host cell line. Stably expressing clones were obtained by hygromycin (100 μg/ml) selection. To test for GPR142 agonist activity the human GPR142 receptor cell clone was thawed at 37° C. and immediately diluted with cell culture medium (Hams F12 medium; 10% FBS, 15 μg/ml Blasticidin, 100 μg/ml Hygromycin B). After centrifugation, the cell pellet was resuspended in medium, and distributed into the assay well plates (10000 cells/well; 20 μl/well). Receptor expression was induced by adding 0.1 μg/ml Doxycyclin to the culture medium. The plates were incubated for one hour at room temperature, followed by a 24 hours incubation at 37° C./5% CO2. After washing the cells in the plate twice with 60 μl assay buffer (10 mM HEPES, 1 mM CaCl2, 0.5 mM MgCl2, 4.2 mM KCl, 146 mM NaCl, 5.5 mM Glucose, 50 mM LiCl and 0.1% BSA, pH 7.4; 20 μl buffer remained in the wells after washing), 10 μl per well of test compound diluted in assay buffer was added to the wells. The assay plate was incubated for 60 minutes at 37° C. Then 5 μl per well of Anti-IP1-Cryptate Tb solution (prepared by 1:33 dilution of stock with Lysis buffer from IP-One Kit) and 5 μl per well of IP1-d2 (Prepared by 1:33 dilution of stock with Lysis buffer from IP-One Kit) dilution were added, followed by another 60 minutes incubation (light protected, room temperature). The emissions at 615 nm and 665 nm (excitation wavelength: 320 nm) were measured on the EnVision™ reader (PerkinElmer). The ratio between the emission at 665 nm and 615 was calculated by the reader.
Each assay microtiter plate contained 8 wells in with vehicle controls instead of compound (100% CTL; low values, negative control) and 8 wells with a reference GPR142 agonist (200% CTL; high values; positive control). An IP1 standard curve was prepared according to the manufacturer.
The ratio between the emission at 665 nm and the emission at 615 nm (Em665/Em615 ratio) was calculated and the signals for the test items were normalized using the positive and negative controls by the following formula: 100−(100×[(ratio(sample)−ratio(low))/(ratio(high)−ratio(low))].

| Compound | EC50 |
| --- | --- |
| Cn1cncc1-c1cn(-c2cccc(C(=O)Nc3cccc(OC(F)(F)C(F)F)c3)c2)nn1 [Example 20] | 0.64 nM |
| COC(=O)c1cccc(NC(=O)c2cccc(-n3cc(-c4cncn4C)nn3)c2)c1 [Example 12] | 0.73 nM |
| Cn1cncc1-c1cn(-c2cccc(C(=O)Nc3cccc(C#N)c3)c2)nn1 [Example 11] | 0.74 nM |
| Cc1cc(Br)cc(NC(=O)c2cccc(-n3cc(-c4cncn4C)nn3)c2)c1 [Example 16] | < 0.38 nM |
| COc1cccc(NC(=O)c2cccc(-n3cc(-c4cncn4C)nn3)c2)c1 [Example 14] | 0.86 nM |
| Cc1ncn(C)c1-c1cn(-c2cccc(C(=O)Nc3cccc(C(F)(F)F)c3)c2)nn1 [Example 8, 3-[4-(1,4-Dimethyl-1H-imidazol-5-yl)-1H-1,2,3-triazol-1-yl]-N-[3-(trifluoromethyl)-phenyl]benzamide] | 0.63 nM |
| Cn1cncc1-c1cn(-c2cccc(C(=O)Nc3cccc([N+](=O)[O-])c3)c2)nn1 [Example 15] | < 0.38 nM |
| Cc1ccc(C(=O)Nc2cccc(Cl)c2)cc1-n1cc(-c2cncn2C)nn1 [Example 5] | 0.37 nM |
| Cn1cncc1-c1cn(-c2cccc(C(=O)Nc3cccc(OC(F)F)c3)c2)nn1 [Example 19] | < 0.38 nM |
| Cc1ncn(C)c1-c1cn(-c2cccc(C(=O)Nc3cccc(OC(F)(F)F)c3)c2)nn1 [Example 18] | 0.64 nM |
| Cc1ncn(C)c1-c1cn(-c2cccc(C(=O)Nc3cccc(Cl)c3)c2)nn1 [Example 17] | 0.95 nM |
| Cc1ccc(C(=O)Nc2cccc(OC(F)(F)F)c2)cc1-n1cc(-c2cncn2C)nn1 [Example 6] | 0.21 nM |
| Cn1cncc1-c1cn(-c2cccc(C(=O)Nc3cccc(Cl)c3)c2)nn1 [Example 3] | 0.21 nM |
| Cc1cccc(NC(=O)c2cccc(-n3cc(-c4cncn4C)nn3)c2)c1 [Example 7] | 0.37 nM |
| Cn1cncc1-c1cn(-c2cccc(C(=O)Nc3cccc(C(F)(F)F)c3F)c2)nn1 [Example 9] | 0.45 nM |
| CN(C)c1cccc(NC(=O)c2cccc(-n3cc(-c4cncn4C)nn3)c2)c1 [Example 13] | 0.85 nM |
| Cc1ccc(C(=O)Nc2cccc(C(F)(F)F)c2)cc1-n1cc(-c2cncn2C)nn1 [Example 1] | 0.4 nM |
| Cn1cncc1-c1cn(-c2cccc(C(=O)Nc3cccc(C(F)(F)F)c3)c2)nn1 [Example 2, 3-[4-(1-Methyl-1H-imidazol-5-yl)-1H-1,2,3-triazol-1-yl]-N-[3-(trifluoromethyl)-phenyl]benzamide] | 0.05 nM |
| Cn1cncc1-c1cn(-c2cccc(C(=O)Nc3cccc(OC(F)(F)F)c3)c2)nn1 [Example 4] | 0.47 nM |
| Cn1cncc1-c1cn(-c2cccc(C(=O)Nc3cc(F)cc(C(F)(F)F)c3)c2)nn1 [Example 10] | < 0.38 nM |
